Laboratory results reported in patent EP1770089A1, “Pyranodibenzofuran derivatives with antifungal and antibacterial activity” (priority 2005, dated 2007).
Converted amounts (≈) assume the structure as drawn. Like-named read-outs stand apart in the source and are kept apart here.

What was measured:
Candida albicans = assay: In vitro activity (MIC99) against Candida albicans; type: cell-based
Protocol: The antifungal activity of compounds 5, 9, and 11-22 against Candida albicans was analyzed by the measure of the MIC99 concentration (see Table 1). Table 1. In Vitro Activity against Candida albicans of pyranodibenzofuran derivatives

L1210 cells = assay: Cytotoxicity, MTA (Microculture Tetrazolium Assay) test; type: cell-based; settings: Mus musculus, cytotoxicity on L1210 cells, read-out: IC50
Protocol: The cytotoxicity of compounds 5, 9, and 10-21 was determined in L1210 cells using the MTA (Microculture Tetrazolium Assay) test.

M. microti (MYC-942272) = assay: Growth inhibition in liquid culture, CFU plating (MIC99); type: cell-based
VERO cells = assay: Cytotoxicity, MTT test; type: cell-based; settings: for IC50: cytotoxicity on VERO cells, MTT, 24 hours
Protocol: (§1) The cytotoxicity of compounds 9 and 16 was further assessed in various mammalian cell lines using the MTT test. RAW and A549 cell lines were maintained in RPMI 1640 medium without L-GLU supplemented with 10% Fetal calf serum (FCS), penicillin-streptomycin solution 1 % at 37 °C in air with 5 % CO2. VERO cell lines were maintained in D-MEM medium without L-GLU supplemented with 10% Fetal calf Serum (FCS), penicillin-streptomycin solution 1 % at 37 °C in air with 5 % CO2. Proliferating cells were seeded for 96-well microtitration plates at a density of 5. 10^5 cells/mL which were further incubated for 24 h at 37°C under 5 % CO2 in air before each assay. Various concentrations of solutions of 9 and 16 (10 µl/well) in 1.25 % dimethylsulfoxide (DMSO)) were added and then incubated for 24 hours under the above conditions. At the end of incubation, 20 µl of dimethylthiazolyl diphenyl tetrazolium bromide solution (MTT) (7.5 mg/ml) was then added into each well and further incubated for 4 h at 37°C to allow the formation of formazan. The crystals of formazan were then dissolved with 100 µl of an acidic solution (Sodium dodecyl sulfate (SDS) 10 %, HCl 10 mM). The optical density of each well was measured at 595 nm using a Multiwell plate reader. The values given are the average means of six replicates. The 50 % inhibition concentration was determined by curve fitting.

Macrophages = assay: Cytotoxicity, MTT test; type: cell-based; settings: cytotoxicity on macrophages
Protocol: as §1

Pneumococcus pneumoniae = assay: Growth inhibition in liquid medium, CFU plating (MIC99); type: cell-based; settings: Gram-positive
M. tuberculosis H37Ra = assay: Growth inhibition in liquid culture, CFU plating (MIC99); type: cell-based; settings: Mycobacterium tuberculosis
Streptomyces Subspec = assay: Growth inhibition in liquid medium, CFU plating (MIC99); type: cell-based; settings: Actinomycetes
Protocol: (§2) To further assess its specificity, effect of compounds 9 and 16 was also assessed in vitro growth in liquid medium on a whole range of bacteria (Corynebacterium jeikeium, Escherichia coli, Enterococcus faecalis, Klebsiella oxytoca, Nocardia asteroides, Staphylococcus aureus, Pseudomonas aeruginosa and Streptomyces). Compounds were solubilized in dimethylsulfoxide (DMSO) and 100 µl of the appropriate dilution were added to a 5 ml culture with predetermined bacterium inoculum. Quantification of the bacteria was carried out by plating on appropriate agar serial 5-fold dilutions in medium, and colony forming units (CFUs) were ascertained after 24 to 48 hours according to the strains. Table 5. Antibacterial activity of compounds 9 and 16 on other bacteria

Enterococcus faecalis = assay: as above; type: cell-based; settings: Gram-positive
Protocol: as §2

Nocardia asteroides = assay: as above; type: cell-based; settings: Actinomycetes
Protocol: as §2

Pseudomonas aeruginosa = assay: as above; type: cell-based; settings: Gram-negative
Protocol: as §2

Klebsiella oxytoca = assay: as above; type: cell-based; settings: Gram-negative
Protocol: as §2

Corynebacterium jeikeium = assay: as above; type: cell-based; settings: Actinomycetes
Protocol: as §2

Escherichia coli = assay: as above; type: cell-based; settings: Gram-negative
Protocol: as §2

Staphylococcus aureus = assay: as above; type: cell-based; settings: Gram-positive
Protocol: as §2

M. bovis BCG (Pasteur) = assay: microbe, parasite or virus in culture; type: cell-based; settings: Mycobacterium tuberculosis variant bovis BCG
[1] = test system: Mycobacterium smegmatis mc^2155; assay: Mycobacterial growth inhibition in liquid culture (MIC99); type: cell-based; settings: Mycolicibacterium smegmatis, MC2155|MC^2155, 48 h; mc2155; two-day's growth at 37°C; 99% decrease vs DMSO control; read-out: MIC99 on M. smegmatis
[2] = test system: Mycobacterium tuberculosis H37Rv; assay: Mycobacterial growth inhibition in liquid culture, CFU plating (MIC99); type: cell-based; settings: Mycobacterium tuberculosis, H37RV; for MIC99: 504 h
[3] = test system: Mycobacterium tuberculosis H37Rv; design: species or system C57BL/6 and BalbC mice; settings: mouse, in vivo
[4] = test system: murine bone marrow macrophages infected by M. tuberculosis H37Rv; assay: Antibacterial activity on infected bone marrow macrophages (CFU count of lysates); type: cell-based

CC1(C)C=Cc2c(ccc3oc4ccccc4c23)O1 [Compound 9, 3,3-dimethyl-3H-benzofuro[3,2-f][1]benzopyran]
MIC99 (Candida albicans; Candida albicans, > 99 % inhibition of growth, read-out: MIC99 C. albicans): > 600 µg/mL
MIC99 (Candida albicans; Fungus, Candida albicans (table of other bacteria), read-out: MIC99): > 600 µg/mL
IC50 (L1210 cells): > 14 µg/mL
MIC99 (M. microti (MYC-942272)): 1 µg/mL (≈ 4 µM)
IC50 (VERO cells; Chlorocebus sabaeus, Vero, 24 h, read-out: IC50): > 50 µg/mL
IC50 (VERO cells): 80 µg/mL (≈ 320 µM)
Selectivity Index (VERO cells; summary statement, cell type not specified): above 10
IC50 (Macrophages; Macrophage, 24 h, read-out: IC50): > 50 µg/mL
IC50 (Macrophages; 24 hours): 80 µg/mL (≈ 320 µM)
MIC99 (Pneumococcus pneumoniae): > 500 µg/mL
MIC99 (M. tuberculosis H37Ra): 10 µg/mL (≈ 40 µM)
MIC99 (Streptomyces Subspec): > 500 µg/mL
MIC99 (Enterococcus faecalis): > 500 µg/mL
MIC99 (Nocardia asteroides): 12.8 µg/mL (≈ 51.1 µM)
MIC99 (Pseudomonas aeruginosa): > 500 µg/mL
MIC99 (Klebsiella oxytoca): > 600 µg/mL
MIC99 (Corynebacterium jeikeium): > 150 µg/mL
MIC99 (Escherichia coli): > 600 µg/mL
MIC99 (Staphylococcus aureus): > 100 µg/mL
MIC99 (M. bovis BCG (Pasteur)): 10 µg/mL (≈ 40 µM)
MIC99 [1]: 5 µg/mL (≈ 20 µM)
MIC99 ([2]; H37Rv, three weeks growth in 7H9, CFU on 7H11, NI = no inhibition at 1 mg/mL, read-out: MIC99 on M. tuberculosis): 5 µg/mL (≈ 20 µM)
MIC99 ([2]; M. tuberculosis H37Rv, three week growth in 7H9/OADC): < 5 µg/mL
MIC ([2]; summary statement, read-out: MIC measured on M. tuberculosis): < 6.25 µg/mL
bacteria detected at 30 days post infection (bacterial load, CFU) [3]: no bacteria was detected in 2 out of 3 mice
CFU ([4]; 5 µg/mL, 24 hours treatment, untreated control 4000 ± 1414): 3000 ± 816
CFU ([4]; 5 µg/mL, 48 hours treatment, untreated control 17500 ± 12583): 2875 ± 250
reduction of bacterial load ([4]; 10µg/mL at 24 hours): 60%
CFU ([4]; 10 µg/mL, 24 hours treatment, untreated control 4000 ± 1414): 1500 ± 577
CFU ([4]; 10 µg/mL, 48 hours treatment, untreated control 17500 ± 12583): 10000 ± 7360
CFU ([4]; 50 µg/mL, 24 hours treatment, untreated control 4000 ± 1414): 1750 ± 1500
CFU ([4]; 50 µg/mL, 48 hours treatment, untreated control 17500 ± 12583): 3800 ± 497
